ChEMBL document CHEMBL4507273 (2021)

How the values were obtained:
[1] = biological target: Serine/threonine-protein kinase VRK2 (Homo sapiens) (UniProt Q86Y07); settings: Compound concentration 1000.0 nM
[2] = biological target: T1, Alpha-1B adrenergic receptor (Homo sapiens, UniProt P35368); assay: GPCRScan assay: inhibition of Alpha1B; set-up: radioligand conc. used [nm] 0.3 – 1.0, parental cells stable HEK
T1 sequence (P35368 whole entry): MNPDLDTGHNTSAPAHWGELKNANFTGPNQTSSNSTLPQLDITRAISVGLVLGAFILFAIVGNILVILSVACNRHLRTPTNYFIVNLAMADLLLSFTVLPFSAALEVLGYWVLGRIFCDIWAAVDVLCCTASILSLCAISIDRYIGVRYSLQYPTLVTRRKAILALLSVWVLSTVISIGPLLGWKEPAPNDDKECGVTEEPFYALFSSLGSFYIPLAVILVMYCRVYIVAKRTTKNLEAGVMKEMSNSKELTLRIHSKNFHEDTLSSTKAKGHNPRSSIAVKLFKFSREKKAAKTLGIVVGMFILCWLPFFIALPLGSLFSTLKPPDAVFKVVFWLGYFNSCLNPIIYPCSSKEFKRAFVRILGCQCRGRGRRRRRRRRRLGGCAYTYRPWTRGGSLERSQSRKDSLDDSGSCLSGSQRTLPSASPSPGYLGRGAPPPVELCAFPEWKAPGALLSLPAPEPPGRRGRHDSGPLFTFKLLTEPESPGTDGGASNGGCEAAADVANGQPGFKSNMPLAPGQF

[3] = biological target: Sodium-dependent serotonin transporter (Homo sapiens, UniProt P31645); settings: Compound concentration 10.0 uM
[4] = biological target: Delta-type opioid receptor (Homo sapiens) (UniProt P41143); settings: Compound concentration 10.0 uM
[5] = biological target: Calcium-dependent protein kinase 1 (Plasmodium falciparum) (UniProt P62344); settings: Compound concentration 1000.0 nM
[6] = biological target: AP2-associated protein kinase 1 (Homo sapiens) (UniProt Q2M2I8); settings: Compound concentration 1000.0 nM
AP2-associated protein kinase 1 (Homo sapiens), sequence (Q2M2I8 whole entry, looked up): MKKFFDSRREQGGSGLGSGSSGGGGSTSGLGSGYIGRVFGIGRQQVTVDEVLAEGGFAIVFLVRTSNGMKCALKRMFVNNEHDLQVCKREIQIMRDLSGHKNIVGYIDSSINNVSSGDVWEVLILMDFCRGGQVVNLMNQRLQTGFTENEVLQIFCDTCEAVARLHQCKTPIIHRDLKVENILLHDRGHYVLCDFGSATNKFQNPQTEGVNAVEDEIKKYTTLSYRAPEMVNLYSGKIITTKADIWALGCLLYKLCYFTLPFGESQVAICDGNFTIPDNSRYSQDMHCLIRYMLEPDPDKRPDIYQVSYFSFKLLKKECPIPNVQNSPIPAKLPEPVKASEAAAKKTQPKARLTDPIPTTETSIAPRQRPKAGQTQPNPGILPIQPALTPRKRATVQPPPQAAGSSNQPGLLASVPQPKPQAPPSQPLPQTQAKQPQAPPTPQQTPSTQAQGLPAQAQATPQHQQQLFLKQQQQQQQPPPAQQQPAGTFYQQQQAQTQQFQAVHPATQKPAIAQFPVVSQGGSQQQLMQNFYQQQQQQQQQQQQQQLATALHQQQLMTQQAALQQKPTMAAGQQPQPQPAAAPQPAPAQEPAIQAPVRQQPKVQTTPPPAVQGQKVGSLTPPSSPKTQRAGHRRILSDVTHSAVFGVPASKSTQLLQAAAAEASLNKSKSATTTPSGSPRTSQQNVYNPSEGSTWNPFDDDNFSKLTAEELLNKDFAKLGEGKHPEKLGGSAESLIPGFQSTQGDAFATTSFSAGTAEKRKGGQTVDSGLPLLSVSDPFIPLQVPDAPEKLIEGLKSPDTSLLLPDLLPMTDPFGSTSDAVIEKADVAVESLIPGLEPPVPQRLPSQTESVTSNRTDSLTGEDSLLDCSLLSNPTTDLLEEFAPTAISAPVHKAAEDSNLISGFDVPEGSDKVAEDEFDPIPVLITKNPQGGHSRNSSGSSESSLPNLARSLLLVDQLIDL

[7] = biological target: Ribosomal protein S6 kinase alpha-5 (Homo sapiens) (UniProt O75582); settings: Compound concentration 1000.0 nM
[8] = tested on: Epidermal growth factor receptor (Homo sapiens), P00533 [UNDEFINED MUTATION]; settings: Compound concentration 1000.0 nM
[9] = biological target: Serine/threonine-protein kinase Sgk1 (Homo sapiens) (UniProt O00141); settings: Compound concentration 1000.0 nM
[10] = biological target: TGF-beta receptor type-2 (Homo sapiens) (UniProt P37173); settings: Compound concentration 1000.0 nM
[11] = biological target: Tyrosine-protein kinase TXK (Homo sapiens) (UniProt P42681); settings: Compound concentration 1000.0 nM
[12] = biological target: 5-hydroxytryptamine receptor 1D (Homo sapiens, UniProt P28221); assay: GPCRScan assay: inhibition of 5-HT1D; set-up: radioligand conc. used [nm] 1.0 – 2.0, parental cells HEKT
5-hydroxytryptamine receptor 1D, sequence (P28221 whole entry): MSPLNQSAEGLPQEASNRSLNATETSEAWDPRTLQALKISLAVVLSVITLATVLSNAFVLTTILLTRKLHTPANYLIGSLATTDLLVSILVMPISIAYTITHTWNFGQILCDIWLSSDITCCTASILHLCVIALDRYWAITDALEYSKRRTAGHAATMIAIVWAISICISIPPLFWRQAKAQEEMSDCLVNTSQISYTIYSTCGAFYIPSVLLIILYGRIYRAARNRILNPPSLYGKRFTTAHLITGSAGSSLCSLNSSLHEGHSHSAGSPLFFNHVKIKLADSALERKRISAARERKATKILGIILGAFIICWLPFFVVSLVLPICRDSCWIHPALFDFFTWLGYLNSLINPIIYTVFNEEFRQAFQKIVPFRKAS

[13] = biological target: Serine/threonine-protein kinase 16 (Homo sapiens) (UniProt O75716); settings: Compound concentration 1000.0 nM
[14] = tested on: Phosphatidylinositol 4,5-bisphosphate 3-kinase catalytic subunit alpha isoform (Homo sapiens), P42336 [H1047L]; settings: Compound concentration 1000.0 nM
[15] = biological target: Receptor-interacting serine/threonine-protein kinase 2 (Homo sapiens) (UniProt O43353); settings: Compound concentration 1000.0 nM
[16] = biological target: Citron Rho-interacting kinase (Homo sapiens) (UniProt O14578); settings: Compound concentration 1000.0 nM
[17] = biological target: Ephrin type-A receptor 7 (Homo sapiens) (UniProt Q15375); settings: Compound concentration 1000.0 nM
Ephrin type-A receptor 7 (Homo sapiens), sequence (Q15375 28-998 limits assumed): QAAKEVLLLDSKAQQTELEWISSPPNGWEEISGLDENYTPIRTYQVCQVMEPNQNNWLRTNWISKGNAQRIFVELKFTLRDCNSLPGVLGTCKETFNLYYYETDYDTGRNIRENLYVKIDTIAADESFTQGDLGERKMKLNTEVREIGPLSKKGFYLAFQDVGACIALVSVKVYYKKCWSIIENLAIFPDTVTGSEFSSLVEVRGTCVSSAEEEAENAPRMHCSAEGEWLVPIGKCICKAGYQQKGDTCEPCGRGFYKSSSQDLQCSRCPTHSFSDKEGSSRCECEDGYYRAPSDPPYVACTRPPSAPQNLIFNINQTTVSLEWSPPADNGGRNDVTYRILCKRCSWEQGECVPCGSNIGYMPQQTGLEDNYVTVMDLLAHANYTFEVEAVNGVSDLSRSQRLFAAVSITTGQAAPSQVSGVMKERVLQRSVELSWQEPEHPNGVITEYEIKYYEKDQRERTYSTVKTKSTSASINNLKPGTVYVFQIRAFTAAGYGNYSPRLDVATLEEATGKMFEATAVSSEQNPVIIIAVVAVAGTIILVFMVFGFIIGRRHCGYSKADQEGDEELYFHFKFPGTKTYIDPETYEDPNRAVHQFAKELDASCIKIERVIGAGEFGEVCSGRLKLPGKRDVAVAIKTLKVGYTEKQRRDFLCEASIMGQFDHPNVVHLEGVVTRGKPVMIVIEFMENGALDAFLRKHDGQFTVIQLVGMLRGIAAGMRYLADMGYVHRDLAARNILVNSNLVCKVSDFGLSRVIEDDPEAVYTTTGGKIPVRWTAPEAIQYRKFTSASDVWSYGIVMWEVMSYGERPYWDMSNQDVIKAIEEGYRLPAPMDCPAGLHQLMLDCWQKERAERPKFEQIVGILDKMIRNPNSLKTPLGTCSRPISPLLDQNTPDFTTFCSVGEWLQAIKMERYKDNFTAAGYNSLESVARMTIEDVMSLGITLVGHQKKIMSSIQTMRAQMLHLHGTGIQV

[18] = biological target: Cyclin-dependent kinase-like 5 (Homo sapiens) (UniProt O76039); settings: Compound concentration 1000.0 nM
Cyclin-dependent kinase-like 5 (Homo sapiens), sequence (O76039 whole entry): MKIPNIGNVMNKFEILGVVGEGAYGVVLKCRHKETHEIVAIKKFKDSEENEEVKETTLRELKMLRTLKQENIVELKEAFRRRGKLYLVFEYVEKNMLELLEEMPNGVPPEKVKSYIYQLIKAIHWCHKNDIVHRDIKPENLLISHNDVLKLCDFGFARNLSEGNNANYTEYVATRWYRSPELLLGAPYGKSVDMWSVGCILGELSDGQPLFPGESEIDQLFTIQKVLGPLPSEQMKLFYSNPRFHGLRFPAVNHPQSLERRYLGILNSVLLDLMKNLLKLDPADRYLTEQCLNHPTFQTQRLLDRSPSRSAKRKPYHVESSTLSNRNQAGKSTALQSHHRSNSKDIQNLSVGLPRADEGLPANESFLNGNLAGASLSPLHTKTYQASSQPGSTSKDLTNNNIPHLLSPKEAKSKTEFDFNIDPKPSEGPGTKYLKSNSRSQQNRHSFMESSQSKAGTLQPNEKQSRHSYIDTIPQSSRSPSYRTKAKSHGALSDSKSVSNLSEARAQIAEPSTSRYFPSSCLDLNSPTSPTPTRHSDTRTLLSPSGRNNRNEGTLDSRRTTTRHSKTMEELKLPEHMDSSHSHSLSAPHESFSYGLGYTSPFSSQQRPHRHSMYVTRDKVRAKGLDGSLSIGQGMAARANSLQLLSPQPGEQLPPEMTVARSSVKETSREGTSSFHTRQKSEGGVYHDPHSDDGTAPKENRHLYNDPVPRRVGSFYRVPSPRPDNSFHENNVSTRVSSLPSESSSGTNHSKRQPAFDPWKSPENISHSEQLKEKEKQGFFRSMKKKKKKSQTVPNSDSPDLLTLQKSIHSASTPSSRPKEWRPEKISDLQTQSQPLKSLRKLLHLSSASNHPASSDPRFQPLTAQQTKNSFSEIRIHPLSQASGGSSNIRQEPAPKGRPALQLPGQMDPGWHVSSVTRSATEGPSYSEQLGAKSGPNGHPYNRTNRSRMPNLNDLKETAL

[19] = tested on: Tyrosine-protein kinase ABL1 (Homo sapiens), P00519 [T315I]; settings: Compound concentration 1000.0 nM
[20] = biological target: Mitogen-activated protein kinase kinase kinase 15 (Homo sapiens) (UniProt Q6ZN16); settings: Compound concentration 1000.0 nM
Mitogen-activated protein kinase kinase kinase 15 (Homo sapiens), sequence (Q6ZN16 whole entry): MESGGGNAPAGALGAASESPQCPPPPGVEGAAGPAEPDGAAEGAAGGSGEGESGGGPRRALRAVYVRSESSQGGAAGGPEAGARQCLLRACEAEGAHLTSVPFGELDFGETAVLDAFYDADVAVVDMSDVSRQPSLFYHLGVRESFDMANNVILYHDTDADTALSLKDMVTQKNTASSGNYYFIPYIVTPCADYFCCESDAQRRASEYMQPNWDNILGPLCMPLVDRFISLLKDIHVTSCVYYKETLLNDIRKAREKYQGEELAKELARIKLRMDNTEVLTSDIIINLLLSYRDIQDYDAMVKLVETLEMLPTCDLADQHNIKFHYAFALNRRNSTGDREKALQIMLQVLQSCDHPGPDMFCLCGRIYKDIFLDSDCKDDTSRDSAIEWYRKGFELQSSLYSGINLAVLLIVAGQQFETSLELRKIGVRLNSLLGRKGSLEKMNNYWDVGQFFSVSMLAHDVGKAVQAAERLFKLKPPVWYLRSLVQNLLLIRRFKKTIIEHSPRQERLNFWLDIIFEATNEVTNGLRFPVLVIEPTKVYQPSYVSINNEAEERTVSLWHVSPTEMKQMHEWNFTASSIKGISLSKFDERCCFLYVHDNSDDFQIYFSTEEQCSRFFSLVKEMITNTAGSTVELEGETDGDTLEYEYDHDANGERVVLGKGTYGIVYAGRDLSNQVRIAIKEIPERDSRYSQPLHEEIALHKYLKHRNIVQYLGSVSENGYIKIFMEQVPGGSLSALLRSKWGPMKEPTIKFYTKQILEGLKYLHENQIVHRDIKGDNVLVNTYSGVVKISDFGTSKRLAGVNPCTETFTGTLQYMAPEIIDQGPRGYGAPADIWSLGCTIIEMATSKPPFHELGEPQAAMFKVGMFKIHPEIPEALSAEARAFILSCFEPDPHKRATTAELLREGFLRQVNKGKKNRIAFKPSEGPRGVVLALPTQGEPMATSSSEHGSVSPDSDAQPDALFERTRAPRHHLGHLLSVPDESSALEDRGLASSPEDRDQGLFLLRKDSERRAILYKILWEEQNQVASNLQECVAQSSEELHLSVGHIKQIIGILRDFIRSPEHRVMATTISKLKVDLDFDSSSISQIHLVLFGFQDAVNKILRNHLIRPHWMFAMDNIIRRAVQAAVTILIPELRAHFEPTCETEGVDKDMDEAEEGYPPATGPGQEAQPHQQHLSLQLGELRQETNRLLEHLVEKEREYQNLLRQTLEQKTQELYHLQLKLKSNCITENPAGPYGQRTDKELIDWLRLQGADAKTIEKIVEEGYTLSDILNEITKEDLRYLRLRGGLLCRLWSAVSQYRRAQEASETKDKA

[21] = biological target: T2, Alpha-2B adrenergic receptor (Homo sapiens) (UniProt P18089); settings: Compound concentration 10.0 uM
T2 sequence (whole entry): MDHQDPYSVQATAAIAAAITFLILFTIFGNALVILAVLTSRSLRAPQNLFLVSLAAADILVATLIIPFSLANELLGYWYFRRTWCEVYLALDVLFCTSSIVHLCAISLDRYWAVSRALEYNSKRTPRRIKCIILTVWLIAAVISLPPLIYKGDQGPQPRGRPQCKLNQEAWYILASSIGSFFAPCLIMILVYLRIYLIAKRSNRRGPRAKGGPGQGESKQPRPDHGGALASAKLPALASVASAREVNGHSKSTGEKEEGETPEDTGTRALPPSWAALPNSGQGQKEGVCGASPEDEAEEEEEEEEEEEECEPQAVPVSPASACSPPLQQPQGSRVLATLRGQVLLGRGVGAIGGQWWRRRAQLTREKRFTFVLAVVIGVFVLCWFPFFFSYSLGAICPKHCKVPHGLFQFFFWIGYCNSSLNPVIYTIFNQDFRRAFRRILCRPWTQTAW

[22] = biological target: Vascular endothelial growth factor receptor 3 (Homo sapiens) (UniProt P35916); assay: Flt4(h) Eurofins Kinase panel; settings: Compound concentration 1.0 uM
[23] = biological target: Tau-tubulin kinase 1 (Homo sapiens) (UniProt Q5TCY1); assay: TTBK1(h) Eurofins Kinase panel; settings: Compound concentration 1.0 uM
[24] = biological target: Insulin-like growth factor 1 receptor (Homo sapiens) (UniProt P08069); assay: IGF-1R(h) Eurofins Kinase panel; settings: Compound concentration 1.0 uM
[25] = biological target: Histamine H2 receptor (Homo sapiens, UniProt P25021); settings: Compound concentration 10.0 uM
[26] = organism: Rattus norvegicus; settings: Compound concentration 10.0 uM
[27] = biological target: Kappa-type opioid receptor (Homo sapiens, UniProt P41145); settings: Compound concentration 10.0 uM

Serine/threonine-protein kinase VRK2 (Homo sapiens), sequence (Q86Y07 whole entry): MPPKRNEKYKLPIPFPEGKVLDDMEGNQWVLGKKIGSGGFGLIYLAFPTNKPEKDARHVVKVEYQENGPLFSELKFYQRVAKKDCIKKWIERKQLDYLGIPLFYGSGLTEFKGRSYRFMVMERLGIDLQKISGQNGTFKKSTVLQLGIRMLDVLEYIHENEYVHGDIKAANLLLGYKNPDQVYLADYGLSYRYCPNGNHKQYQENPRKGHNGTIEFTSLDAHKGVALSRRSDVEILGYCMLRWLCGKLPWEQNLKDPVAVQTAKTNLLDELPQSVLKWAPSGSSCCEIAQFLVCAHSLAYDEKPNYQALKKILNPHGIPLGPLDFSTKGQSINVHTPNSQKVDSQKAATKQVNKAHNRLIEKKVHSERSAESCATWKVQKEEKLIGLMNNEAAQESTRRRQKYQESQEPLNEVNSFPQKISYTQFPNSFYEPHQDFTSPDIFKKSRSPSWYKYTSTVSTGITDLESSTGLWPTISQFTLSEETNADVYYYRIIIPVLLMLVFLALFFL

Compound | residual activity [1] [%] | Ki ([2]; read-out: Ki) [nM] | inhibition [3] [%] | residual activity [5] [%] | residual activity [6] [%] | residual activity [7] [%] | residual activity [8] [%] | residual activity [9] [%] | residual activity [10] [%] | residual activity [11] [%] | Ki ([12]; read-out: Ki) [nM] | Ki ([12]; read-out: pKi (converted)) [nM] | residual activity [13] [%] | residual activity [14] [%] | residual activity [15] [%] | residual activity [16] [%] | residual activity [17] [%] | residual activity [18] [%] | residual activity [19] [%] | residual activity [20] [%] | also measured
CNCc1ccccc1-c1csc([C@H](C)Nc2nc(C)nc3cc(OC)c(OC)cc23)c1 [BAY-294] | 73 | 95.3 | 56.2 | 81 | 94 | 82 | 98 | 91 | 97 | 100 | 93.5 | 92.3 | 100 | 88 | 100 | 100 | 100 | 87 | 87 | 77 | Ki ([2]; read-out: pKi (converted)): 86.1 nM; inhibition [4]: 10.5%
CNCc1ccccc1-c1csc([C@@H](C)Nc2nc(C)nc3cc(OC)c(OC)cc23)c1 [BAY-293] | 89 | 265 | 47.4 | 100 | 95 | 89 | 82 | 81 | 91 | 76 | 181 | 170 | 97 | 95 | 100 | 92 | 100 | 94 | 83 | 60 | inhibition [21]: 85%; % residual kinase activity [22]: 82%; % residual kinase activity [23]: 87%; % residual kinase activity [24]: 74%; inhibition [25]: 99%; inhibition [26]: 71%; inhibition [27]: 105%
